US20140073778A9, “CONJUGATES COMPRISING HYDROXYALKYL STARCH AND A CYTOTOXIC AGENT AND PROCESS FOR THEIR PREPARATION” (priority 2010, published 2014)
Marks after values point to notes of the source that are not given here.

Legend:
[1] = test system: human colon carcinoma HT-29; assay: Tumor growth inhibition (relative tumor volume, T/C) in s.c. HT-29 xenograft model; type: in vivo, human (xenograft in NMRI:nu/nu mice)
Experimental: The cells were obtained from ATCC and are cryo-preserved within the EPO tumor bank. They were thawed, expanded in vitro and transplanted as cell suspension subcutaneously (s.c.) in female NMRI:nu/nu mice. […] It was therefore selected for this study.
For experimental use 10^7 tumor cells/mouse from the in vitro passage were transplanted s.c. into the flank of each of 10 mice/group at day 0.
(§1) […] The application volume was 0.2 ml/20 g mouse body weight. The test compounds, the vehicle controls and the reference compounds were all given intravenously (i.v.).
(§2) Tumor growth inhibition was used as therapeutic parameter. Additionally, body weight change was determined as signs for toxicity (particularly, potential hematological or gastrointestinal side effects).
Tumor diameters were measured twice weekly with a caliper. Tumor volumes were calculated according to V=(length×(width)^2)/2. For calculation of the relative tumor volume (RTV) the tumor volumes at each measurement day were related to the day of first treatment. At each measurement day the median and mean tumor volumes per group and also the treated to control (T/C) values in percent were calculated.
Descriptive statistics were performed on the data of body weight and tumor volume. […] Statistical evaluation was performed with the U-test of Mann and Whitney with a significance level of p≦0.05, using the Windows program […] 6.
Solutions were prepared immediately before injection by solving the conjugates in saline solution by vortexing in combination with centrifugation until a clear solution of the necessary concentration of the drug was obtained.

[2] = Body weight change as sign of toxicity in HT-29 xenograft-bearing mice; type: in vivo, NMRI:nu/nu mice
Experimental: as §1, §2
Individual body weights of mice were determined twice weekly and mean body weight per group was related to the initial value in percent (body weight change, BWC).
On the day of necropsy mice were sacrificed by cervical dislocation and inspected for gross organ changes.
The loss of body weight is known to be an indicator of gastrointestinal and hepatotoxicity of the tested compound.

[3] = test system: human lung carcinoma LXFL-529; assay: Tumor growth inhibition (relative tumor volume) in LXFL-529 xenograft model; type: in vivo, human (xenograft in NMRI nu/nu mice)
Excerpt: (§3) Mouse strain: NMRI nu/nu, female Animals supplied by: Charles River, Germany Age of mice at implantation: 5-7 weeks
(§4) The tumor xenografts LXFL-529 and MAXF-401 (Fiebig H H, Berger D P, Dengler W A, Wallbrecher E, Winterhalter B R: Combined In Vitro/In Vivo Test Procedure with Human Tumor Xenografts for New Drug Development. Contrib. Oncol., Basel, Karger, 1992, Vol. 42, pp 321-351) used in this study were derived from surgical specimen from patients treated at the University Hospital in Freiburg, Germany, and directly implanted into nude mice. Prior to surgery, most of the patients had not received any chemotherapy.
(§5) Tumor fragments were obtained from xenografts in serial passage in nude mice. After removal from donor mice, tumors were cut into fragments (4-5 mm diameter) and placed in PBS until subcutaneous implantation. Recipient mice were anaesthetized by inhalation of isoflurane. A small incision was made in the back and one tumor fragment per animal was transplanted with tweezers. The mice were monitored daily.
At randomization, tumor-bearing animals were stratified according to tumor volume into treatment and vehicle (control) groups. Only animals carrying one tumor of appropriate size (approximately 50-250 mm^3) were considered for randomization. Mice were randomized when the required number of mice qualified for randomization. The day of randomization was designated as day 0, which was also the first day of dosing.
(§6) All test items were formulated in 0.9% NaCl solution and given as i.v. bolus injection.
(§7) Measurement of tumor volume and body weight as well as calculations of relative tumor volumes were carries out analgue to the procedure described in 2.3.

[4] = test system: human mammary carcinoma (MAXF-401); assay: Tumor growth inhibition (relative tumor volume) in MAXF-401 xenograft model; type: in vivo, human (xenograft in NMRI nu/nu mice)
Excerpt: as §3, §4, §5
At randomization, tumor-bearing animals were stratified according to tumor volume into treatment and vehicle (control) groups. Only animals carrying one tumor of appropriate size (approximately 50-250 mm^3) were considered for randomization. Mice were randomized when the required number of mice qualified for randomization. […]

[5] = Body weight change / toxicity in MAXF-401 xenograft-bearing mice; type: in vivo, NMRI nu/nu mice; details: Table 18, CA4P 50, 40 mg/kg/inj. d 0, 10, CCs1 60 d 0, CCs2 60, 40 d 0, 10
Experimental: All experiments were conducted according to the guidelines of the German Animal Welfare Act (Tierschutzgesetz). Animal health was examined prior to tumor implantation and randomization to ensure that only animals without any symptoms of disease were selected to enter testing procedures. During the experiments, animals were monitored daily regarding tumor burden, general condition, feed and water supply.
as §6, §7

## CCc1c2c(nc3ccc(OC(=O)N4CCC(N5CCCCC5)CC4)cc13)-c1cc3c(c(=O)n1C2)COC(=O)[C@]3(O)CC [Irinotecan]
[1]; Table 14, optimum at day 54, Irinotecan 15 mg/kg/inj. d 9-13, conjugates 60 mg/kg/inj. d 9
  RTV T/C (%) Optimum (at day): 48.2%
[1]; Table 15, Irinotecan 15 mg/kg/inj. d 8-12, conjugates 60 mg/kg/inj. d 8, day of optimum printed below value (30; CSN10 34; CSN13 13)
  RTV T/C (%) Optimum (at day): 27.7* %
[1]; Table 16, 60 mg/kg/inj. d 7, day of optimum in parentheses (21-42)
  RTV T/C (%) Optimum (at day): 66.3%
[2]; Table 14, number of toxic deaths of 8 mice, Irinotecan 15 mg/kg/inj. d 9-13, conjugates 60 mg/kg/inj. d 9, day of death in parentheses
  Toxic death (day): 1
[2]; Table 17, number of toxic deaths per group (day), treatment d 8, Irinotecan 60, CSN21 30, CSN23 60, CSN22 and CIr1-3 80 mg/kg/inj.
  Toxic death (at day): 1 (20)

## COc1cc([C@@H]2c3cc4c(cc3[C@@H](O[C@@H]3O[C@@H]5CO[C@@H](C)O[C@H]5[C@H](O)[C@H]3O)[C@H]3COC(=O)[C@H]23)OCO4)cc(OC)c1O [V-16 (Etoposid)]
[3]; Table 19, day 16, treatment d 0, 3, 7, Etoposid 20 mg/kg/inj., CEt1 20, 40, 50 mg/kg/inj.
  Tumor volume cm^3/d 16: 0.293 +/− 0.137 cm^3
[3]; Table 19, optimum at day 16, treatment d 0, 3, 7, Etoposid 20 mg/kg/inj., CEt1 20, 40, 50 mg/kg/inj.
  RTV T/C (%) Optimum (at day): 15.5 (16) %
[3]; Table 19, re-normalized on day 7, treatment d 0, 3, 7, Etoposid 20 mg/kg/inj., CEt1 20, 40, 50 mg/kg/inj.
  RTV T/C (%) re-normalized on day 7: 22.6%

## COc1ccc(/C=C\c2cc(OC)c(OC)c(OC)c2)cc1OP(=O)([O-])[O-].[Na+].[Na+] [combretastatin A4 phosphate, Combretastatin A4 phosphate disodium salt]
[4]; MAXF-401 xenografts in nude mice, i.v. bolus
  inhibition of tumor growth: only modest anti-tumor activity
[4]; Table 18, CA4P 50, 40 mg/kg/inj. d 0, 10, CCs1 60 d 0, CCs2 60, 40 d 0, 10, day of optimum in parentheses
  RTV T/C (%) Optimum (at day): 59.8 (13) %
[5]; day of value in parentheses
  BWC [%] (at day): −1.8 (7) %
[5]; deaths of 4 mice (day)
  Mortality (at day): 0

## COc1cc([C@@H]2c3cc4c(cc3[C@@H](O[C@@H]3O[C@@H]5CO[C@@H](C)O[C@H]5[C@H](O)[C@H]3O)[C@H]3COC(=O)[C@H]23)OCO4)cc(OC)c1O [etoposide, Etoposide]
[3]; LXFL-529 xenografts in nude mice, tumor shrinkage after day 7
  loss of tumor volume between d7 and d16: 26%
[3]; LXFL-529 xenografts, at the last day of the experiment
  tumors still shrinking or at least stabile: 2/5
